Reference: EP0183129A1, “Quinolonecarboxylic acid derivatives” (KYORIN PHARMACEUTICAL CO., LTD., priority 1984, dated 1986)
Values after ≈ are worked out from the molar mass of the structure shown. Structures can show the parent of a compound that is named as a salt. Where two headings read alike, the source gives them in different places.

Columns and labels:
[1] = tested on: Klebsiella pneumoniae KY(GN)6445; experiment: In vitro antibacterial activity, MIC (standard strain); type: cell-based; conditions: Klebsiella pneumoniae KY(GN)6445; 10^6 cells/ml; standard strain; read-out: MIC
K. pneumoniae 1-220S = experiment: as above; type: cell-based; conditions: Klebsiella pneumoniae, 1220S; K. pneumoniae 1-220S; 10^6 cells/ml; standard strain; read-out: MIC
S. marcescens GN 7577 = experiment: as above; type: cell-based; conditions: Serratia marcescens, GN7577; S. marcescens GN 7577; 10^6 cells/ml; standard strain; read-out: MIC
S. pyogenes 4340 = experiment: In vitro antibacterial activity, MIC (clinical isolates); type: cell-based; conditions: Streptococcus pyogenes; S. pyogenes 4340; 10^6 cells/ml; clinical isolate; read-out: MIC
S. faecalis 49 = experiment: as above; type: cell-based; conditions: Enterococcus faecalis; S. faecalis 49; 10^6 cells/ml; clinical isolate; read-out: MIC
B. fragilis 25285 = experiment: In vitro antibacterial activity, MIC (standard strain); type: cell-based, Bacteroides fragilis; conditions: Bacteroides fragilis, 25285, B. fragilis 25285; 10^6 cells/ml; standard strain; read-out: MIC
[2] = tested on: Proteus vulgaris IFO 3167; experiment: as above; type: cell-based; conditions: IFO3167
S. faecalis 214 = experiment: In vitro antibacterial activity, MIC (clinical isolates); type: cell-based; conditions: Enterococcus faecalis; S. faecalis 214; 10^6 cells/ml; clinical isolate; read-out: MIC
[3] = tested on: Citrobacter freundii IID 976; experiment: In vitro antibacterial activity, MIC (standard strain); type: cell-based; conditions: IID976; Citrobacter freundii IID 976; 10^6 cells/ml; standard strain; read-out: MIC
E. coli ML 4707 = experiment: as above; type: cell-based; conditions: Escherichia coli, ML4707; E. coli ML 4707; 10^6 cells/ml; standard strain; read-out: MIC
S. agalactiae 4342 = experiment: In vitro antibacterial activity, MIC (clinical isolates); type: cell-based; conditions: Streptococcus agalactiae; S. agalactiae 4342; 10^6 cells/ml; clinical isolate; read-out: MIC
[4] = tested on: Serratia marcescens IID 618; experiment: In vitro antibacterial activity, MIC (standard strain); type: cell-based; conditions: Serratia marcescens, IID618, Serratia marcescens IID 618; 10^6 cells/ml; standard strain; read-out: MIC
S. pyogenes 3102 = experiment: In vitro antibacterial activity, MIC (clinical isolates); type: cell-based; conditions: Streptococcus pyogenes; S. pyogenes 3102; 10^6 cells/ml; clinical isolate; read-out: MIC
S. pneumoniae 15 = experiment: as above; type: cell-based; conditions: Streptococcus pneumoniae; S. pneumoniae 15; 10^6 cells/ml; clinical isolate; read-out: MIC
S. pneumoniae 2054 = experiment: as above; type: cell-based; conditions: Streptococcus pneumoniae; S. pneumoniae 2054; 10^6 cells/ml; clinical isolate; read-out: MIC
P. aeruginosa IFO 12689 = experiment: In vitro antibacterial activity, MIC (standard strain); type: cell-based, Pseudomonas aeruginosa; conditions: Pseudomonas aeruginosa, IFO12689; P. aeruginosa IFO 12689; 10^6 cells/ml; standard strain; read-out: MIC
C. ramosum = experiment: as above; type: cell-based; conditions: Thomasclavelia ramosa; C. ramosum; 10^6 cells/ml; standard strain; read-out: MIC
S. faecalis IID 682 = experiment: as above; type: cell-based; conditions: Enterococcus faecalis, IID682; S. faecalis IID 682; 10^6 cells/ml; standard strain; read-out: MIC
S. agalactiae 4368 = experiment: In vitro antibacterial activity, MIC (clinical isolates); type: cell-based; conditions: Streptococcus agalactiae; S. agalactiae 4368; 10^6 cells/ml; clinical isolate; read-out: MIC
S. pneumoniae 2950 = experiment: as above; type: cell-based; conditions: Streptococcus pneumoniae; S. pneumoniae 2950; 10^6 cells/ml; clinical isolate; read-out: MIC
[5] = tested on: Acinetobacter anitratus IID 876; experiment: In vitro antibacterial activity, MIC (standard strain); type: cell-based; conditions: Acinetobacter calcoaceticus, IID876, Acinetobacter anitratus IID 876; 10^6 cells/ml; standard strain; read-out: MIC
S. aureus Smith = experiment: as above; type: cell-based, Staphylococcus aureus; conditions: Staphylococcus aureus, S. aureus Smith, 10^6 cells/ml, standard strain
S. epidermidis IID 866 = experiment: as above; type: cell-based; conditions: Staphylococcus epidermidis
S. pyogenes 4372 = experiment: In vitro antibacterial activity, MIC (clinical isolates); type: cell-based; conditions: Streptococcus pyogenes; S. pyogenes 4372; 10^6 cells/ml; clinical isolate; read-out: MIC
[6] = tested on: Yersinia enterocolitica IID 981; experiment: In vitro antibacterial activity, MIC (standard strain); type: cell-based; conditions: IID981; Yersinia enterocolitica IID 981; 10^6 cells/ml; standard strain; read-out: MIC
S. agalactiae 4394 = experiment: In vitro antibacterial activity, MIC (clinical isolates); type: cell-based; conditions: Streptococcus agalactiae; S. agalactiae 4394; 10^6 cells/ml; clinical isolate; read-out: MIC
S. pyogenes 3130 = experiment: as above; type: cell-based; conditions: Streptococcus pyogenes, read-out: MIC
[7] = tested on: Alcaligenes faecalis 0104002; experiment: In vitro antibacterial activity, MIC (standard strain); type: cell-based; conditions: Alcaligenes faecalis, 0104002, Alcaligenes faecalis 0104002; 10^6 cells/ml; standard strain; read-out: MIC
S. agalactiae 4470 = experiment: In vitro antibacterial activity, MIC (clinical isolates); type: cell-based; conditions: Streptococcus agalactiae; S. agalactiae 4470; 10^6 cells/ml; clinical isolate; read-out: MIC
S. pyogenes 3107 = experiment: as above; type: cell-based; conditions: Streptococcus pyogenes; S. pyogenes 3107; 10^6 cells/ml; clinical isolate; read-out: MIC
[8] = Proteus vulgaris IFO 3167, 10^6 cells/ml, standard strain, read-out: MIC
[9] = IID866, S. epidermidis IID 866, 10^6 cells/ml, standard strain, read-out: MIC

| SMILES | MIC [1] | MIC (K. pneumoniae 1-220S) | MIC (S. marcescens GN 7577) | MIC (S. pyogenes 4340) | MIC (S. faecalis 49) | MIC (B. fragilis 25285) | MIC (S. faecalis 214) | MIC [3] | MIC (E. coli ML 4707) | MIC (S. agalactiae 4342) | MIC [4] | MIC (S. pyogenes 3102) | MIC (S. pneumoniae 15) | MIC (S. pneumoniae 2054) | MIC (P. aeruginosa IFO 12689) | MIC (C. ramosum) | MIC (S. faecalis IID 682) | MIC (S. agalactiae 4368) | MIC (S. pneumoniae 2950) | MIC [5] | other results |
| --- | --- | --- | --- | --- | --- | --- | --- | --- | --- | --- | --- | --- | --- | --- | --- | --- | --- | --- | --- | --- | --- |
| CCCNCC1CCN(c2c(F)cc3c(=O)c(C(=O)O)cn(C4CC4)c3c2F)C1 (stereo not drawn) [Example 10, 1-Cyclopropyl-6,8-difluoro-1,4-dihydro-4-oxo-7-(3-n-propylaminomethyl-l-pyrrolidinyl)-3-quinolinecarboxylic acid hydrochloride] | 0.05 µg/mL | 0.2 µg/mL | 3.13 µg/mL | 0.2 µg/mL | 0.39 µg/mL | 0.78 µg/mL | 0.39 µg/mL | 0.05 µg/mL | 0.2 µg/mL | 0.2 µg/mL | 0.2 µg/mL | 0.2 µg/mL | 0.39 µg/mL | 0.78 µg/mL | 3.13 µg/mL | 1.56 µg/mL | 0.39 µg/mL | 0.39 µg/mL | 0.39 µg/mL | 0.05 µg/mL | MIC [2, 8]: 0.025 µg/mL; MIC (S. aureus Smith; read-out: MIC): 0.05 µg/mL; MIC (S. epidermidis IID 866; [9]): 0.1 µg/mL; MIC (S. pyogenes 4372): 0.39 µg/mL; MIC [6]: 0.1 µg/mL; MIC (S. agalactiae 4394): 0.78 µg/mL; MIC (S. pyogenes 3130): 0.2 µg/mL; MIC [7]: 0.78 µg/mL; MIC (S. agalactiae 4470): 0.39 µg/mL; MIC (S. pyogenes 3107): 0.2 µg/mL |
| CC(C)NCC1CCN(c2c(F)cc3c(=O)c(C(=O)O)cn(C4CC4)c3c2F)C1.Cl (stereo not drawn) [Example 11, 1-Cyclopropyl-6,8-difluoro-1,4-dihydro-7-(3-isopropylaminomethyl-1-pyrrolidinyl)-4-oxo-3-quinolinecarboxylic acid hydrochloride] | 0.1 µg/mL | 0.2 µg/mL | 3.13 µg/mL | 0.2 µg/mL | 0.2 µg/mL | 0.78 µg/mL | 0.39 µg/mL | 0.1 µg/mL | 0.05 µg/mL | 0.2 µg/mL | 0.39 µg/mL | 0.2 µg/mL | 0.2 µg/mL | 0.2 µg/mL | 3.13 µg/mL | 0.78 µg/mL | 0.39 µg/mL | 0.2 µg/mL | 0.2 µg/mL | 0.1 µg/mL | MIC [2, 8]: 0.05 µg/mL; MIC (S. aureus Smith; read-out: MIC): 0.05 µg/mL; MIC (S. epidermidis IID 866; [9]): 0.05 µg/mL; MIC (S. pyogenes 4372): 0.2 µg/mL; MIC [6]: 0.2 µg/mL; MIC (S. agalactiae 4394): 0.39 µg/mL; MIC (S. pyogenes 3130): 0.2 µg/mL; MIC [7]: 1.56 µg/mL; MIC (S. agalactiae 4470): 0.2 µg/mL; MIC (S. pyogenes 3107): 0.2 µg/mL |
| NCC1CCN(c2c(F)cc3c(=O)c(C(=O)O)cn(C4CC4)c3c2Br)C1 (stereo not drawn) [Example 15, 7-(3-Aminomethyl-l-pyrrolidinyl)-8-bromo-l-cyclopropyl-6-fluoro-1,4-dihydro-4-oxo-3-quinolinecarboxylic acid] | 0.025 µg/mL (≈ 0.0589 µM) | 0.05 µg/mL (≈ 0.118 µM) | 0.78 µg/mL (≈ 1.84 µM) | 0.05 µg/mL (≈ 0.118 µM) | 0.2 µg/mL (≈ 0.471 µM) | ≤ 0.05 µg/mL | 0.2 µg/mL (≈ 0.471 µM) | 0.025 µg/mL (≈ 0.0589 µM) | 0.025 µg/mL (≈ 0.0589 µM) | 0.1 µg/mL (≈ 0.236 µM) | 0.1 µg/mL (≈ 0.236 µM) | 0.05 µg/mL (≈ 0.118 µM) | 0.05 µg/mL (≈ 0.118 µM) | 0.1 µg/mL (≈ 0.236 µM) | 0.78 µg/mL (≈ 1.84 µM) | 0.39 µg/mL (≈ 0.919 µM) | 0.1 µg/mL (≈ 0.236 µM) | 0.05 µg/mL (≈ 0.118 µM) | 0.05 µg/mL (≈ 0.118 µM) | 0.05 µg/mL (≈ 0.118 µM) | MIC ([2]; Proteus vulgaris): 0.0125 µg/mL (≈ 0.0295 µM); MIC (S. aureus Smith): 0.0125 µg/mL (≈ 0.0295 µM); MIC (S. epidermidis IID 866; IID866): 0.0125 µg/mL (≈ 0.0295 µM); MIC (S. pyogenes 4372): 0.05 µg/mL (≈ 0.118 µM); MIC [6]: 0.05 µg/mL (≈ 0.118 µM); MIC (S. agalactiae 4394): 0.2 µg/mL (≈ 0.471 µM); MIC (S. pyogenes 3130): 0.05 µg/mL (≈ 0.118 µM); MIC [7]: 0.2 µg/mL (≈ 0.471 µM); MIC (S. agalactiae 4470): 0.05 µg/mL (≈ 0.118 µM); MIC (S. pyogenes 3107): 0.05 µg/mL (≈ 0.118 µM) |
| CNCC1CCN(c2c(F)cc3c(=O)c(C(=O)O)cn(C4CC4)c3c2Br)C1 (stereo not drawn) [Example 16, 8-Bromo-1-cyclopropyl-6-fluoro-1,4-dihydro-7-(3-methylaminomethyl-l-pyrrolidinyl)-4-oxo-3-quinolinecarboxylic acid] | 0.05 µg/mL (≈ 0.114 µM) | 0.1 µg/mL (≈ 0.228 µM) | 0.78 µg/mL (≈ 1.78 µM) | 0.05 µg/mL (≈ 0.114 µM) | 0.1 µg/mL (≈ 0.228 µM) | 0.1 µg/mL (≈ 0.228 µM) | 0.1 µg/mL (≈ 0.228 µM) | 0.05 µg/mL (≈ 0.114 µM) | 0.025 µg/mL (≈ 0.057 µM) | 0.05 µg/mL (≈ 0.114 µM) | 0.1 µg/mL (≈ 0.228 µM) | 0.05 µg/mL (≈ 0.114 µM) | 0.05 µg/mL (≈ 0.114 µM) | 0.05 µg/mL (≈ 0.114 µM) | 1.56 µg/mL (≈ 3.56 µM) | 0.39 µg/mL (≈ 0.89 µM) | 0.05 µg/mL (≈ 0.114 µM) | 0.05 µg/mL (≈ 0.114 µM) | 0.05 µg/mL (≈ 0.114 µM) | 0.05 µg/mL (≈ 0.114 µM) | MIC [2, 8]: 0.025 µg/mL (≈ 0.057 µM); MIC (S. aureus Smith; read-out: MIC): 0.0125 µg/mL (≈ 0.0285 µM); MIC (S. epidermidis IID 866; [9]): 0.025 µg/mL (≈ 0.057 µM); MIC (S. pyogenes 4372): 0.05 µg/mL (≈ 0.114 µM); MIC [6]: 0.1 µg/mL (≈ 0.228 µM); MIC (S. agalactiae 4394): 0.1 µg/mL (≈ 0.228 µM); MIC (S. pyogenes 3130): 0.05 µg/mL (≈ 0.114 µM); MIC [7]: 0.39 µg/mL (≈ 0.89 µM); MIC (S. agalactiae 4470): 0.05 µg/mL (≈ 0.114 µM); MIC (S. pyogenes 3107): 0.05 µg/mL (≈ 0.114 µM) |
